Data published in patent publication US20240360157A1, “TYK2 INHIBITORS” (BIOGEN MA INC., priority 2021, published 2024).

Assays:
Format in all cases: biochemical
[1] = molecular target: human TYK2 catalytic kinase (JH1) domain (Homo sapiens (Human), UniProt P29597); experiment: ADP-Glo Kinase Assay, recombinant TYK2 catalytic kinase (JH1) domain; settings: recombinant JH1 domain 2 nM, 10 μM ATP, JAK3-974 peptide, mean, read-out: TYK2 biochem IC50 (nM) Mean
Method in brief: (§1)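 Luminescent ADP read-out after residual ATP depletion, 100 min reaction. Kinase domain concentrations were 4 nM (JAK1), 0.2 nM (JAK2), 0.3 nM (JAK3) and 2 nM (TYK2), each with 50 μM peptide. IC50 values came from 4-parameter logistic fits over 11 points, 3-fold steps, top 10 μM or 1 μM.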

[2] = molecular target: human JAK3 catalytic kinase (JH1) domain (Homo sapiens (Human), UniProt P52333); experiment: ADP-Glo Kinase Assay, recombinant JAK3 catalytic kinase (JH1) domain; settings: recombinant JH1 domain 0.3 nM, 4 μM ATP, JAK3-974 peptide, mean, read-out: JAK3 biochem IC50 (nM) Mean
Method in brief: as §1

[3] = molecular target: human JAK2 catalytic kinase (JH1) domain (Homo sapiens (Human), UniProt O60674); experiment: ADP-Glo Kinase Assay, recombinant JAK2 catalytic kinase (JH1) domain; settings: recombinant JH1 domain 0.2 nM, 15 μM ATP, JAK3-974 peptide, mean, read-out: JAK2 biochem IC50 (nM) Mean
Method in brief: as §1

[4] = molecular target: human JAK1 catalytic kinase (JH1) domain (Homo sapiens (Human), UniProt P23458); experiment: ADP-Glo Kinase Assay, recombinant JAK1 catalytic kinase (JH1) domain; settings: recombinant JH1 domain 4 nM, 35 μM ATP, JAK3-342 peptide, mean, read-out: JAK1 biochem IC50 (nM) Mean
Method in brief: as §1

human TYK2 catalytic kinase (JH1) domain, sequence (P29597 897-1176): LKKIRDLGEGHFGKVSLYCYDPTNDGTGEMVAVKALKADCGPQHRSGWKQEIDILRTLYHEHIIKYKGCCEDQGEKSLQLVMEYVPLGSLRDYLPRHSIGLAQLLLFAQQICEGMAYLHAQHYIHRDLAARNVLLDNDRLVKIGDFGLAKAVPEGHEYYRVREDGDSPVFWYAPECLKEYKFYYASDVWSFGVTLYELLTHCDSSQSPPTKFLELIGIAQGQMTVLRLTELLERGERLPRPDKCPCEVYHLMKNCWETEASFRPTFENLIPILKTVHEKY
human JAK3 catalytic kinase (JH1) domain, sequence (P52333 822-1111): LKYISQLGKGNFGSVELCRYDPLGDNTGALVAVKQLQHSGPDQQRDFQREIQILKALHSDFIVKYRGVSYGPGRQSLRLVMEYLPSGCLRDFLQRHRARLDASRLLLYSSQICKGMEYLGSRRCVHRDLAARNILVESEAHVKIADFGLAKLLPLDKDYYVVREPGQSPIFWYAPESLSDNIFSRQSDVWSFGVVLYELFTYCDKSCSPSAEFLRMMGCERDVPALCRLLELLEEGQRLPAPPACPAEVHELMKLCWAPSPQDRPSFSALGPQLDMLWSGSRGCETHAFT
human JAK2 catalytic kinase (JH1) domain, sequence (O60674 849-1124): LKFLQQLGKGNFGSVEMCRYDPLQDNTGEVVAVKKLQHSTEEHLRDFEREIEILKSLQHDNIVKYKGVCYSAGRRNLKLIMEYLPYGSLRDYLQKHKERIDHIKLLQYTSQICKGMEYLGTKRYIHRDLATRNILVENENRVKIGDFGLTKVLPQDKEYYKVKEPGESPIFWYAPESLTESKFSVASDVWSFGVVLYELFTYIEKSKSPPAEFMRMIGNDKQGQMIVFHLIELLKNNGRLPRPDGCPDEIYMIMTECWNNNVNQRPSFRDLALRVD
human JAK1 catalytic kinase (JH1) domain, sequence (P23458 875-1153): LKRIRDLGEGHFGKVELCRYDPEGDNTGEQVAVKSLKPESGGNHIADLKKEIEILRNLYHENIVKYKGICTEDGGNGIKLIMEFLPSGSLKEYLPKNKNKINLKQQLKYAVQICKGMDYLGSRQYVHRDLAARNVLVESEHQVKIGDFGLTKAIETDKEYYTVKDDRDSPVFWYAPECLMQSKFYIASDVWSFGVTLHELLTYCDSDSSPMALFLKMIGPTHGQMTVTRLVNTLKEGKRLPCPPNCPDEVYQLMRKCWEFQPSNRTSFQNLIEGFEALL

| SMILES | IC50 [1] [nM] | IC50 [2] [nM] | IC50 [3] [nM] | IC50 [4] [nM] |
| --- | --- | --- | --- | --- |
| O=C([C@@H]1C[C@H]1F)N1C2CCC1CN(c1ccnn3cc(-c4ccc(OC(F)F)nc4)cc13)C2 [Example 115, (3-(6-(6-(difluoromethoxy)pyridin-3-yl)pyrrolo[1,2-b]pyridazin-4-yl)-3,8-diazabicyclo[3.2.1]octan-8-yl)((1S,2R)-2-fluorocyclopropyl)methanone] | 6 | 961 | 82 | 105 |
| O=C([C@@H]1C[C@H]1F)N1C2CCC1CN(c1ccnn3cc(-c4ccc(C(F)F)nc4)cc13)C2 [Example 116, (3-(6-(6-(difluoromethyl)pyridin-3-yl)pyrrolo[1,2-b]pyridazin-4-yl)-3,8-diazabicyclo[3.2.1]octan-8-yl)((1S,2R)-2-fluorocyclopropyl)methanone] | 2.6 | 847 | 41 | 44 |
| O=C([C@@H]1C[C@H]1F)N1C2CCC1CN(c1ccnn3cc(-c4ccc(C(F)(F)F)nc4)cc13)C2 [Example 117, ((1S,2R)-2-fluorocyclopropyl)(3-(6-(6-(trifluoromethyl)pyridin-3-yl)pyrrolo[1,2-b]pyridazin-4-yl)-3,8-diazabicyclo[3.2.1]octan-8-yl)methanone] | 5.2 | 878 | 64 | 67 |
| Cn1cc(-c2cc3c(N4CC5CCC(C4)N5C(=O)[C@@H]4C[C@H]4F)ccnn3c2)c(F)n1 [Example 118, (3-(6-(3-fluoro-1-methyl-1H-pyrazol-4-yl)pyrrolo[1,2-b]pyridazin-4-yl)-3,8-diazabicyclo[3.2.1]octan-8-yl)((1S,2R)-2-fluorocyclopropyl)methanone] | 1.8 | 502 | 28 | 92 |
| O=C([C@@H]1C[C@H]1F)N1C2CCC1CN(c1ccnn3cc(-c4ccnc(N5CCC5)c4)cc13)C2 [Example 119, (3-(6-(2-(azetidin-1-yl)pyridin-4-yl)pyrrolo[1,2-b]pyridazin-4-yl)-3,8-diazabicyclo[3.2.1]octan-8-yl)((1S,2R)-2-fluorocyclopropyl)methanone] | 45 | 5520 | 215 | 1720 |
| O=C([C@@H]1C[C@H]1F)N1C2CCC1CN(c1ccnn3cc(-c4ccnc(N5CC(F)(F)C5)c4)cc13)C2 [Example 120, (3-(6-(2-(3,3-difluoroazetidin-1-yl)pyridin-4-yl)pyrrolo[1,2-b]pyridazin-4-yl)-3,8-diazabicyclo[3.2.1]octan-8-yl)((1S,2R)-2-fluorocyclopropyl)methanone] | 85.2 | 10000 | 636 | 1650 |
| Cn1ncc(-c2cc3c(N4CC5CCC(C4)N5C(=O)[C@@H]4C[C@H]4F)ccnn3c2)c1F [Example 121, (3-(6-(5-fluoro-1-methyl-1H-pyrazol-4-yl)pyrrolo[1,2-b]pyridazin-4-yl)-3,8-diazabicyclo[3.2.1]octan-8-yl)((1S,2R)-2-fluorocyclopropyl)methanone] | 4.7 | 606 | 113 | 117 |
| COc1ccc(-c2cc3c(N4CC5CCC(C4)N5C(=O)[C@@H]4C[C@H]4F)ccnn3c2)nn1 [Example 122, ((1S,2R)-2-fluorocyclopropyl)(3-(6-(6-methoxypyridazin-3-yl)pyrrolo[1,2-b]pyridazin-4-yl)-3,8-diazabicyclo[3.2.1]octan-8-yl)methanone] | 3.7 | 940 | 63 | 308 |
| COc1cncc(-c2cc3c(N4CC5CCC(C4)N5C(=O)[C@@H]4C[C@H]4F)ccnn3c2)n1 [Example 123, ((1S,2R)-2-fluorocyclopropyl)(3-(6-(6-methoxypyrazin-2-yl)pyrrolo[1,2-b]pyridazin-4-yl)-3,8-diazabicyclo[3.2.1]octan-8-yl)methanone] | 23.7 | 5510 | 386 | 302 |
| COc1cnc(-c2cc3c(N4CC5CCC(C4)N5C(=O)[C@@H]4C[C@H]4F)ccnn3c2)cn1 [Example 124, ((1S,2R)-2-fluorocyclopropyl)(3-(6-(5-methoxypyrazin-2-yl)pyrrolo[1,2-b]pyridazin-4-yl)-3,8-diazabicyclo[3.2.1]octan-8-yl)methanone] | 54.5 | 7440 | 700 | 405 |
| Cc1ccc(-c2cc3c(N4CC5CCC(C4)N5C(=O)[C@@H]4C[C@H]4F)ccnn3c2)nn1 [Example 125, ((1S,2R)-2-fluorocyclopropyl)(3-(6-(6-methylpyridazin-3-yl)pyrrolo[1,2-b]pyridazin-4-yl)-3,8-diazabicyclo[3.2.1]octan-8-yl)methanone] | 8.8 | 1010 | 49 | 236 |
| CNc1nccc(-c2cc3c(N4CC5CCC(C4)N5C(=O)[C@@H]4C[C@H]4F)ccnn3c2)n1 [Example 126, ((1S,2R)-2-fluorocyclopropyl)(3-(6-(2-(methylamino)pyrimidin-4-yl)pyrrolo[1,2-b]pyridazin-4-yl)-3,8-diazabicyclo[3.2.1]octan-8-yl)methanone] | 8.8 | 1460 | 98 | 54 |
| CNc1cncc(-c2cc3c(N4CC5CCC(C4)N5C(=O)[C@@H]4C[C@H]4F)ccnn3c2)n1 [Example 127, ((1S,2R)-2-fluorocyclopropyl)(3-(6-(6-(methylamino)pyrazin-2-yl)pyrrolo[1,2-b]pyridazin-4-yl)-3,8-diazabicyclo[3.2.1]octan-8-yl)methanone] | 18 | 3140 | 300 | 211 |
| CN(C)c1cc(-c2cc3c(N4CC5CCC(C4)N5C(=O)[C@@H]4C[C@H]4F)ccnn3c2)ccn1 [Example 128, (3-(6-(2-(dimethylamino)pyridin-4-yl)pyrrolo[1,2-b]pyridazin-4-yl)-3,8-diazabicyclo[3.2.1]octan-8-yl)((1S,2R)-2-fluorocyclopropyl)methanone] | 2.9 | 844 | 68 | 29 |
| CNc1ccc(-c2cc3c(N4CC5CCC(C4)N5C(=O)[C@@H]4C[C@H]4F)ccnn3c2)cn1 [Example 129, ((1S,2R)-2-fluorocyclopropyl)(3-(6-(6-(methylamino)pyridin-3-yl)pyrrolo[1,2-b]pyridazin-4-yl)-3,8-diazabicyclo[3.2.1]octan-8-yl)methanone] | 3.8 | 658 | 73 | 69 |
| Cc1cncc(-c2cc3c(N4CC5CCC(C4)N5C(=O)[C@@H]4C[C@H]4F)ccnn3c2)n1 [Example 130, ((1S,2R)-2-fluorocyclopropyl)(3-(6-(6-methylpyrazin-2-yl)pyrrolo[1,2-b]pyridazin-4-yl)-3,8-diazabicyclo[3.2.1]octan-8-yl)methanone] | 52.8 | 5420 | 674 | 806 |
| Cc1cnc(-c2cc3c(N4CC5CCC(C4)N5C(=O)[C@@H]4C[C@H]4F)ccnn3c2)cn1 [Example 131, ((1S,2R)-2-fluorocyclopropyl)(3-(6-(5-methylpyrazin-2-yl)pyrrolo[1,2-b]pyridazin-4-yl)-3,8-diazabicyclo[3.2.1]octan-8-yl)methanone] | 50.7 | 5470 | 672 | 562 |
| O=C([C@@H]1C[C@H]1F)N1C2CCC1CN(c1ccnn3cc(-c4ccc(=O)n(C(F)F)c4)cc13)C2 [Example 132, 1-(difluoromethyl)-5-(4-(8-((1S,2R)-2-fluorocyclopropane-1-carbonyl)-3,8-diazabicyclo[3.2.1]octan-3-yl)pyrrolo[1,2-b]pyridazin-6-yl)pyridin-2(1H)-one] | 3.3 | 452 | 37 | 34 |
| Cn1ncc(-c2cc3c(N4CC5CCC(C4)N5C(=O)[C@@H]4C[C@H]4F)ccnn3c2)c1F [Example 133, (3-(6-(5-fluoro-1-methyl-1H-pyrazol-4-yl)pyrrolo[1,2-b]pyridazin-4-yl)-3,8-diazabicyclo[3.2.1]octan-8-yl)((1S,2R)-2-fluorocyclopropyl)methanone] | 6 | 856 | 112 | 124 |
| COc1nn(C)cc1-c1cc2c(N3CC4CCC(C3)N4C(=O)[C@@H]3C[C@H]3F)ccnn2c1 [Example 134, ((1S,2R)-2-fluorocyclopropyl)(3-(6-(3-methoxy-1-methyl-1H-pyrazol-4-yl)pyrrolo[1,2-b]pyridazin-4-yl)-3,8-diazabicyclo[3.2.1]octan-8-yl)methanone] | 1.4 | 588 | 24 | 114 |
| COc1cc(-c2cc3c(N4CC5CCC(C4)N5C(=O)[C@@H]4C[C@H]4F)ccnn3c2)cnn1 [Example 137, ((1S,2R)-2-fluorocyclopropyl)(3-(6-(6-methoxypyridazin-4-yl)pyrrolo[1,2-b]pyridazin-4-yl)-3,8-diazabicyclo[3.2.1]octan-8-yl)methanone] | 17.6 | 4200 | 220 | 150 |
